These results are taken from patent publication US5103013A, “Dithioketene derivatives, pharmaceutical compositions containing the same and uses thereof” (Yuhan Corporation, Ltd., priority 1988, dated 1992).

Data set [1] relates to serum ALT increase induced by CCl4. As to the kind of experiment: Determination of 50% effective dose (ED50) against CCl4-induced serum ALT increase. The format is in vivo. As to conditions: Mus musculus; mice, oral 50, 25, 12.5 or 6.25 mg/kg, 6 h before CCl4; serum ALT 24 h after CCl4; estimated from dose-response curves; read-out: ED50 (50% effective dose of test compound). As for the experimental part: The various doses of test compounds were administered to mice, followed by the treatment with CCl4 after 6 hours. 24 Hours after the CCl4 treatment, the serum ALT level of the animals were determined. The hepatoprotective effect of the test compounds and the doses were plotted to form doseresponse curves, from which the ED50 doses of the test compounds were estimated.
The experimental animals were divided into the normal, the CCl4 treated and the test compound treated groups. Each group consisted of 8 mice with body weight of 20-25 grams. The test compounds were suspended in 0.2% CMC--Na solution and administered orally at a dose of 50 mg, 25 mg, 12.5 mg or 6.25 mg/125 ml/kg body weight. Only the vehicle, 0.2% CMC--Na solution, was administered to the normal and to the CCl4 treated group instead of the test compound suspension. 6 Hours later, the CCl4 solution in olive oil was administered orally to the CCl4 treated and the test compound treated groups at the dose of 50 ul/25 ml oilve oil/kg body weight. The norm group was administered olive oil only at the same dose. 24 Hours after the CCl4 administration, blood samples were collected from the orbital sinuses of the animals and the sera were obtained by centrifugation. The serum ALT activities were monitored and the hepatoprotective effect of the test compounds were calculated by the same method as described in experiment 1. The percentages were plotted against the corresponding doses of the test compounds to make dose-response curves, from which the 50% effective dose of test compound was estimated.

Data set [2] relates to serum alanine aminotransferase (ALT) increase induced by CCl4. As to the kind of experiment: Protective effect against acute hepatic damage induced by carbon tetrachloride (suppression of serum ALT increase). Format: in vivo. The note with it: Mus musculus; mice, oral 50 mg/kg in 0.2% CMC-Na, 6 h before oral CCl4 (50 ul/kg); serum ALT 24 h after CCl4; read-out: Inhibitory (%) (protective effect of test compound against increase of serum ALT activity induced by CCl4). As to the method:
Carbon tetrachloride (CCl4) is a well-known hepatotoxic agent, thus widely used to produce experimental animal models for screening the potential drugs acting upon hepatic diseases. In this experiment test compounds were administered to mice prior to treatment with CCl4. 24 Hours after the CCl4 treatment, the animals were sacrificed and serum alanine aminotransferase (ALT) levels were determined. The hepatoprotective effect of a test compound was evaluated by the suppressive action against the increase of serum ALT induced by CCl4.
The experimental animals were divided into the normal, the CCl4 treated and the test compound treated groups. Each group consisted of 8 mice with body weight of 20-25 grams. The test compounds were suspended in 0.2% sodium carboxymethylcellulose (CMC--Na) solution and administered orally at the dose of 50 mg/125 ml/kg body weight. Only the vehicle 0.2% CMC--Na solution, was administered to the normal and to the CCl4 treated group instead of the test compound suspension.
6 Hours after the drug administration, the CCl4 solution in olive oil was administered orally to the CCl4 treated-group and the test compound treated group at the dose of 50 ul/25 ml olive oil/kg body weight. The normal group was administered with olive oil only at the same dose. 24 Hours after the CCl4 administration, blood samples were collected from the orbital sinus of the animals and the sera were monitored using an automatic blood analyzer (Gilford, SBA 300). The hepatoprotective effect of the test compounds was expressed by the suppressive percentage against the increase of serum ALT level induced by CCl4 calculated by the following formula; [formula]

Data set [3] in a line: Acute toxicity of test compounds (oral LD50). The note with it: mouse, in vivo, male ICR mice, 0.2% CMC-Na suspension, dead mice counted for 14 days, read-out: LD50 of Test Compound (column head prints ED50). As to the method:
Each test compound was suspended in 0.2% CMC--Na solution in various concentrations to make test suspensions. The test suspensions were administered orally to male ICR mice (10 in each group) at various doses. The number of dead mice was counted for 14 days and the value of median lethal dose (LD50, g/kg) was calculated by the Hitchifield-Wilcoxon method.

By ED50 is commonly meant the dose at which the effect has come halfway, by size or by number of responders. For the compound `CC(C)OC(=O)C(C(=O)Nc1ccc(C(F)(F)F)cc1)=C1SCCS1` [Example 21, Isopropyl 2-(1,3-dithiolan-2-ylidene)-2-[N-(4-trifluoromethylphenyl)carbamoyl]acetate], the ED50 in data set [1] was under 50 mg/kg. In data set [2], the inhibition in vivo at 50 mg/kg is 98%.

`Cc1csc(NC(=O)C(C(=O)OC(C)C)=C2SCCS2)n1` [Example 26, Isopropyl 2-(1,3-dithiolan-2-ylidene)-2-[N-(4-methyl-2-thiazolyl)carbamoyl]acetate]: the ED50 in data set [1] was under 50 mg/kg. Besides, the inhibition in vivo at 50 mg/kg in data set [2] is 98%.

For the compound `CC(C)OC(=O)C(C(=O)Nc1ccccn1)=C1SCCS1` [Example 32, Isopropyl 2-(1,3-dithiolan-2-ylidene)-2-[N-(2-pyridyl)carbamoyl]acetate], the ED50 in data set [1] is under 50 mg/kg. Further, in data set [2], the inhibition in vivo at 50 mg/kg turned out to be 85%.

`CC(C)OC(=O)C(C(=O)Nc1nc(-c2ccccc2)cs1)=C1SCS1` [Example 27, Isopropyl 2-(1,3-dithietan-2-ylidene)-2-[N-(4-phenyl-2-thiazolyl)carbamoyl]acetate]: in data set [1], the ED50 is over 50 mg/kg. Moreover, the inhibition in vivo at 50 mg/kg in data set [2] is 11%.

`CC(C)OC(=O)C(C(=O)Nc1ccccc1)=C1SCS1` [Example 18, Isopropyl 2-(1,3-dithietan-2-ylidene)-2-(N-phenylcarbamoyl)acetate]: the ED50 in data set [1] is 7 mg/kg. The inhibition in vivo at 50 mg/kg in data set [2] stood at 100%.

In general, LD50 refers to the dose expected to kill half of the subjects tested. For the compound `CC(C)OC(=O)C(C(=O)Nc1nccs1)=C1SCS1` [Example 22, Isopropyl 2-(1,3-dithietan-2-ylidene)-2-[N-(2-thiazolyl)carbamoyl]acetate], the ED50 in data set [1] is under 6.25 mg/kg. Moreover, in data set [2], the inhibition in vivo at 50 mg/kg came out at 100%. Further, in data set [3], the LD50 at 336 h is over 5000 mg/kg.

In the case of `CC(C)OC(=O)C(C(=O)NCc1ccccc1)=C1SCS1` [Example 15, Isopropyl 2-(1,3-dithietan-2-ylidene)-2-(N-benzylcarbamoyl)acetate], the ED50 in data set [1] is 10 mg/kg. Besides, the inhibition in vivo at 50 mg/kg in data set [2] came to 97%.

For `CC(C)OC(=O)C(C(N)=O)=C1SCS1` [Example 13, Isopropyl 2-(1,3-dithietan-2-ylidene)-2-carbamoylacetate], the ED50 in data set [1] was over 50 mg/kg. In addition, the inhibition in vivo at 50 mg/kg in data set [2] turned out to be 28%. Besides, the LD50 at 336 h in data set [3] is under 5000 mg/kg.

Consider `CC(C)OC(=O)C(C(=O)Nc1nncs1)=C1SCS1` [Example 28, Isopropyl 2-(1,3-dithietan-2-ylidene)-2-[N-(1,3,4-thiadiazol-2-yl)carbamoyl]acetate], for which, in data set [1], the ED50 was under 6.25 mg/kg. The inhibition in vivo at 50 mg/kg in data set [2] turned out to be 100%. Moreover, in data set [3], the LD50 at 336 h is over 5000 mg/kg.

In the case of `CC(C)OC(=O)C(C(=O)Nc1ccc(C(F)(F)F)cc1)=C1SCS1` [Example 19, Isopropyl 2-(1,3-dithietan-2-ylidene)-2-[N-(4-trifluoromethylphenyl)carbamoyl]acetate], the ED50 in data set [1] is 6.25 mg/kg. Moreover, in data set [2], the inhibition in vivo at 50 mg/kg was found to be 100%.

As to `CC(C)OC(=O)C(C(=O)Nc1ccccn1)=C1SCS1` [Example 29, Isopropyl 2-(1,3-dithietan-2-ylidene)-2-[N-(2-pyridyl)carbamoyl]acetate], in data set [1], the 50% effective dose (ED50) is 10 mg/kg. For the same compound, in data set [2], the inhibition in vivo at 50 mg/kg was 100%. Moreover, in data set [3], the 50% lethal dose (LD50) at 336 h is over 5000 mg/kg.

Turning to `Cc1csc(NC(=O)C(C(=O)OC(C)C)=C2SCS2)n1` [Example 24, Isopropyl 2-(1,3-dithietan-2-ylidene)-2-[N-(4-methyl-2-thiazolyl)carbamoyl]acetate], the ED50 in data set [1] is under 6.25 mg/kg. Further, the inhibition in vivo at 50 mg/kg in data set [2] was 100%. The LD50 at 336 h in data set [3] was over 5000 mg/kg.
